# What was measured:
# Assay type in all cases: cell-based
# [1] = system: primary human fibroblasts derived from IPF patients (LL29 cells) treated with TGF-β1; experiment: Inhibition of fibrotic process, αSMA staining in TGF-β1 treated LL29 fibroblasts; settings: Fibroblast, 96 h, % αSMA positive LL29 cells, TGF-β1 20 ng/mL, 4 days
# Text: Representative compounds were screened using primary human fibroblasts (derived from IPF patients) treated with TGF-β1 to determine their ability to inhibit the fibrotic process.
# Primary human fibroblasts derived from IPF patients (LL29 cells) [^1Xiaoqiu Liu, et. al., “Fibrotic Lung Fibroblasts Show Blunted Inhibition by cAMP Due to Deficient cAMP Response Element-Binding Protein Phosphorylation”, Journal of Pharmacology and Experimental Therapeutics (2005), 315(2), 678-687; ^2Watts, K. L., et. al., “RhoA signaling modulates cyclin D1 expression in human lung fibroblasts; implications for idiopathic pulmonary fibrosis”, Respiratory Research (2006), 7(1), 88] were obtained from American Type Culture Collection (ATCC) and expanded in F12 medium supplemented with 15% Fetal Bovine Serum and Penicillin/Streptomycin.
# Each compound was dissolved in DMSO as a 10 mM stock and used to prepare compound source plates. Serial dilution (1:2, 11-point dose-response curves from 10 μM to 1.87 nM) and compound transfer was performed using the ECHO 550 (Labcyte, Sunnyvale, Calif.) into 384-well clear bottom assay plates (Greiner Bio-One) with appropriate DMSO backfill for a final DMSO concentration of 0.1%. LL29 cells are plated at 1,500 cells/well in 80 μL/well F12 medium supplemented with 1% Fetal Bovine Serum. One hour after addition of the cells, TGF-β1 (Peprotech; 20 ng/mL) was added to the plates to induce fibrosis (ref. 1 and 2 above). Wells treated with TGF-β1 and containing DMSO were used as controls. Cells were incubated at 37° C. and 5% CO2 for 4 days. Following incubation for 4 days, SYTOX green nucleic acid stain (Life Technologies [Thermo Fisher Scientific]) was added to the wells at a final concentration of 1 μM and incubated at room temperature for 30 min. Cells were then fixed using 4% formaldehyde (Electron Microscopy Sciences), washed 3 times with PBS followed by blocking and permeabilization using 3% Bovine Serum Albumin (BSA; Sigma) and 0.3% Triton X-100 (Sigma) in PBS. Cells were then stained with antibody specific to α-smooth muscle actin (αSMA; Abcam) (ref. 1 and 2 above) in 3% Bovine Serum Albumin (BSA; Sigma) and 0.3% Triton X-100 (Sigma) in PBS, and incubated overnight at 4° C. Cells were then washed 3 times with PBS, followed by incubation with Alexa Flor-647 conjugated secondary antibody (Life Technologies [Thermo Fisher Scientific]) and DAPI at room temperature for 1 hour. Cells were then washed 3 times with PBS and plates were sealed for imaging. αSMA staining was imaged by excitation at 630 nm and emission at 665 nm and quantified using the Compartmental Analysis program on the CellInsight CX5 (Thermo Scientific). Dead or apoptotic cells were excluded from analysis based on positive SYTOX green staining. % of total cells positive for αSMA were counted in each well and normalized to the average of 11 wells treated with TGF-β1 on the same plate using Dotmatics' Studies Software. The normalized averages (fold change over untreated) of 3 replicate wells for each compound concentration were used to create dose-responses curves and EC50 values were calculated using non-linear regression curve fit in the Dotmatics' Studies Software. For EC50 of >10 μM, the percent inhibition at 10 μM is provided.
# [2] = system: Wnt activity (Sp5-Luc reporter, SW480 colon carcinoma cells); experiment: Wnt activity screening assay, Sp5-Luc reporter gene in SW480 cells; settings: Homo sapiens, overnight incubation
# Text: The screening assay for Wnt activity is described as follows. Reporter cell lines can be generated by stably transducing cancer cell lines (e.g., colon cancer) or primary cells (e.g., IEC-6 intestinal cells) with a lentiviral construct that includes a Wnt-responsive promoter driving expression of the firefly luciferase gene.
# SW480 colon carcinoma cells were transduced with a lentiviral vector expressing luciferase with a human Sp5 promoter consisting of a sequence of eight TCF/LEF binding sites. SW480 cells stably expressing the Sp5-Luc reporter gene and a hygromycin resistance gene were selected by treatment with 150 μg/mL of hygromycin for 7 days. These stably transduced SW480 cells were expanded in cell culture and used for all further screening activities. Each compound was dissolved in DMSO as a 10 mM stock and used to prepare compound source plates. Serial dilution (1:3, 10-point dose-response curves starting from 10 μM) and compound transfer was performed using the ECHO 550 (Labcyte, Sunnyvale, Calif.) into 384-well white solid bottom assay plates (Greiner Bio-One) with appropriate DMSO backfill for a final DMSO concentration of 0.1%. For Sp5-Luc reporter gene assays, the cells were plated at 4,000 cells/well in 384-well plates with medium containing 1% fetal bovine serum and incubated overnight at 37° C. and 5% CO2. Following incubation, 20 μl of BrightGlo luminescence reagent (Promega) was added to each well of the 384-well assay plates. The plates were placed on an orbital shaker for 2 min and then luminescence was quantified using the Envision (Perkin Elmer) plate reader. Readings were normalized to DMSO only treated cells, and normalized activities were utilized for EC50 calculations using the dose-response log (inhibitor) vs. response-variable slope (four parameters) nonlinear regression feature available in GraphPad Prism 5.0 (or Dotmatics). For EC50 of >10 μM, the percent inhibition at 10 μM is provided.
# SW480 colon cancer cells = experiment: Cell viability assay (CellTiter-Blue); settings: Homo sapiens, 96 h, four days
# Protocol: Representative compounds were screened using the following assay procedure to assess the effect on cell viability as described below.
# Each compound was dissolved in DMSO as a 10 mM stock and used to prepare compound source plates. Serial dilution (1:3, 8-point dose-response curves from 10 μM to 0.0045 μM) and compound transfer was performed using the ECHO 550 (Labcyte, Sunnyvale, Calif.) into 96-well clear bottom, black-walled plates (Corning-Costar).
# Approximately 2×10^3 SW480 colon cancer cells were seeded into each well and allowed to incubate in the presence or absence of compound for four days at 37° C./5% CO2. Eight replicates of DMSO-treated cells served as controls and cells treated with compound were performed in duplicate.
# After incubation, 20 μL of CellTiter-Blue (Promega) was added to each well allowed to incubate for approximately 3 hours. This reagent was a buffered solution which contains resazurin, metabolically active cells were able to reduce rezarurin (blue) into resorufin (pink) which was highly fluorescent. This measured fluorescence was used as a readout for cell viability.
# After incubation, the plates were read at Ex 560 nm Em 590 nm (Cytation 3, BioTek). Dose-response curves were generated and EC50 concentration values were calculated using non-linear regression curve fit in the GraphPad Prism (San Diego, Calif.) or Dotmatics' Studies Software (Bishops Stortford, UK). For EC50 of >10 μM, the percent inhibition at 10 μM is provided.
# IL-6 (THP-1 cells) = experiment: IL-6 inhibition in LPS-stimulated THP-1 cells (HTRF); settings: Homo sapiens; IL-6 in THP-1 cells, LPS 500 ng/mL, 22 hours
# Protocol: Human monocyte cell line (THP-1 cells; Catalog # TIB-202, ATCC, Manassas, Va.) were cultured in Roswell Park Memorial Institute (RPMI) 1640 Medium (Catalog #21870-100, Buffalo, N.Y.) with 1% L-glutamine, 1% HEPES, 1% Sodium Pyruvate, 2% Sodium Bicarbonate supplemented with 100 units/mL penicillin, 50 μg/mL streptomycin, 2-mercaptoethanol (0.05 mM) [basal medium] and 10% fetal bovine serum (Catalog #16140089, Life Technologies, Carlsbad, Calif.) at 37° C. and 5% CO2.
# THP-1 cells were cultured in basal media with 1% FBS for 24 hours before the start of the assay. Each compound was dissolved in DMSO as a 10 mM stock and used to prepare compound source plates. Serial dilution (1:3, 10-point dose-response curves starting from 10 μM) and compound transfer was performed using the ECHO 550 (Labcyte, Sunnyvale, Calif.) into 384-well white low volume assay plates (Greiner Bio-One) with appropriate DMSO backfill for a final DMSO concentration of 0.1%. THP-1 cells were plated at 5000 cells/well in the 384-well plates and incubated at 37° C. for 2 h. 500 ng/mL of LPS was added after 2 hours and cells were incubated for another 22 hours at 37° C. Plates were spun in a centrifuge for 1 minute at […] and a mixture of anti-IL6 XL665, and anti-IL6 Cryptate diluted in reconstitution buffer (Cisbio Inc.) was added to each well. Following incubation for 3 hrs at room temperature, Homogeneous Time-Resolved Fluorescence (HTRF) was measured using the Envision (Perkin Elmer) at 665 nm and […]. The ratio of fluorescence at 665 nm to 620 nm was used as a readout for IL6 quantification. All samples were processed in duplicate. Readings were normalized to DMSO treated cells and normalized activities were utilized for EC50 calculations using the dose-response log (inhibitor) vs. response-variable slope (four parameters) nonlinear regression feature available in GraphPad Prism 5.0 (or Dotmatics). For EC50 of >10 μM, the percent inhibition at 10 μM is provided.
SMILES,EC50 [1] [nM],EC50 [2] [nM],EC50 (SW480 colon cancer cells) [nM],EC50 (IL-6 (THP-1 cells)) [nM]
"c1csc(-c2ccnc3[nH]c(-c4n[nH]c5cnc(-c6cncc(CN7CCCCC7)c6)cc45)cc23)c1 [Compound 351, 5-(5-(Piperidin-1-ylmethyl)pyridin-3-yl)-3-(4-(thiophen-2-yl)-1H-pyrrolo [2,3-b]pyridin-2-yl)-1H-pyrazolo[3,4-c]pyridine]",2560,6900,4100,182
"c1ccc(-c2cc3c(-c4cc5c(-c6cccs6)ccnc5[nH]4)n[nH]c3cn2)nc1 [Compound 364, 5-(Pyridin-2-yl)-3-(4-(thiophen-2-yl)-1H-pyrrolo[2,3-b]pyridin-2-yl)-1H-pyrazolo[3,4-c]pyridine]",403,630,706,1010
"Cc1ncc(-c2cc3c(-c4cc5c(-c6cccs6)ccnc5[nH]4)n[nH]c3cn2)n1C [Compound 701, 5-(1,2-Dimethyl-1H-imidazol-5-yl)-3-(4-(thiophen-2-yl)-1H-pyrrolo[2,3-b]pyridin-2-yl)-1H-pyrazolo[3,4-c]pyridine]",928,1060,1220,988
